The source of these data is US20220144881A1, “COMPOUNDS AND METHODS FOR MANUFACTURE OF HYPOMETHYLATING AGENTS” (priority 2020, published 2022).

This data set in a line: Effect of relative humidity on polymorphic forms of Compound 10 (monitored by XRPD). In kind it is physicochemical. The settings on record: for Stability at 0% RH: relevant condition for storage and further processing; for Form conversion at 33% RH: Form A only after at least 2 weeks; for Description of polymorph (stability / conditions of formation): RH = relative humidity; for Form conversion at 97% RH and above: RH of 97% and above. How it is done:
Studies were performed to identify the different polymorphic forms of Compound 10 drug substance. Seven polymorphs of Compound 10 in total have been identified (TABLE 1).
Compound 10 is hygroscopic and is therefore packaged and stored at conditions that inhibit moisture uptake. Experiments were performed to understand the effect of relative humidity on various polymorphic forms of Compound 10. Form A and Form B were subjected to increasing relative humidity (TABLE 2) and monitored using XRPD to evaluate polymorphism.
Forms A, B, C, and D were characterized by X-ray powder diffraction (XRPD). XRPD diffractograms were collected with a PANalytical X'Pert PRO MPD® diffractometer using an incident beam of Cu radiation produced using an Optix long, fine-focus source. An elliptically graded multilayer mirror was used to focus Cu Kα X-rays through the specimen and onto the detector. Prior to the analysis, a silicon specimen (NIST SRM 640e) was analyzed to verify the observed position of the Si 111 peak is consistent with the NIST-certified position. For the determination of solid forms under the environmental conditions surveyed in EXAMPLE 6, samples of Compound 10 were stored within environmental chambers maintained at specific relative humidity conditions. A specimen of the sample was sandwiched between 3-μm-thick Etnom® films within these environmental chambers. Once prepared, the test article was removed from the environmental chamber and analyzed in transmission geometry without undue delay. A beam-stop, short antiscatter extension, and antiscatter knife edge were used to minimize the background generated by air. Soller slits for the incident and diffracted beams were used to minimize broadening from axial divergence. Diffraction patterns were collected using a scanning position-sensitive detector (X'Celerator) located 240 mm from the specimen and Data Collector software v. 2.2b.

For the molecule `Nc1ncn([C@H]2C[C@H](OP(=O)([O-])OC[C@H]3O[C@@H](n4cnc5c(=O)[nH]c(N)nc54)C[C@@H]3O)[C@@H](CO)O2)c(=O)n1.[Na+]` [Compound 10, guadecitabine sodium], the Hygroscopicity entry is given as “hygroscopic”.
On to `Nc1ncn([C@H]2C[C@H](OP(=O)([O-])OC[C@H]3O[C@@H](n4cnc5c(=O)[nH]c(N)nc54)C[C@@H]3O)[C@@H](CO)O2)c(=O)n1.[Na+]` [Form A, guadecitabine sodium], for which the “Stability at 0% RH” value is given as “stable” and the “Description of polymorph (stability / conditions of formation)” value is “Stable form at 0% RH”. Besides, where the note is “33% RH”, the “Duration of stability at 33% RH” value is on record as “at least 2 weeks” and the “Form conversion at 33% RH” value was “converted to Form K”.
Turning to `Nc1ncn([C@H]2C[C@H](OP(=O)([O-])OC[C@H]3O[C@@H](n4cnc5c(=O)[nH]c(N)nc54)C[C@@H]3O)[C@@H](CO)O2)c(=O)n1.[Na+]` [Form B, guadecitabine sodium], the “Stability at 0% RH” value was “stable”; the “Description of polymorph (stability / conditions of formation)” value is listed as “Stable form at 0% RH”; the “Form conversion at 97% RH and above” value is recorded as “deliquescence to afford a mesophase”. Moreover, the “Form conversion at 33% RH” value (33% RH) is recorded as “converted to Form H”. In addition, the “Polymorph observed at 97% RH” value (97% relative humidity, XRPD) is given as “Mesophase”. In addition, the “Form obtained on increasing RH” value (RH increased beyond 33%) is reported as “formation of Form D”.
Regarding `Nc1ncn([C@H]2C[C@H](OP(=O)([O-])OC[C@H]3O[C@@H](n4cnc5c(=O)[nH]c(N)nc54)C[C@@H]3O)[C@@H](CO)O2)c(=O)n1.[Na+]` [Form C, guadecitabine sodium], the “Description of polymorph (stability / conditions of formation)” value was “Formed from ethanolic slurry of Form A”.
With `Nc1ncn([C@H]2CC(OP(=O)([O-])OC[C@H]3O[C@@H](n4cnc5c(=O)[nH]c(N)nc54)CC3O)[C@@H](CO)O2)c(=O)n1.[Na+]` (some centres unmarked) [Form D, guadecitabine sodium], the “Description of polymorph (stability / conditions of formation)” value is listed as “Formed from Form B at 58% RH”.
Take `Nc1ncn([C@H]2C[C@H](OP(=O)([O-])OC[C@H]3O[C@@H](n4cnc5c(=O)[nH]c(N)nc54)C[C@@H]3O)[C@@H](CO)O2)c(=O)n1.[Na+]` [Form H, guadecitabine sodium]: the “Description of polymorph (stability / conditions of formation)” value is on record as “Formed from Form B at 33% RH”.
For `Nc1ncn([C@H]2C[C@H](OP(=O)([O-])OC[C@H]3O[C@@H](n4cnc5c(=O)[nH]c(N)nc54)C[C@@H]3O)[C@@H](CO)O2)c(=O)n1.[Na+]` [Form K, guadecitabine sodium], the “Description of polymorph (stability / conditions of formation)” value is on record as “Formed from Form A at 58% RH”; the “Form conversion at 97% RH and above” value is “converted to Form L”.
In the case of `Nc1ncn([C@H]2CC(OP(=O)([O-])OC[C@H]3O[C@@H](n4cnc5c(=O)[nH]c(N)nc54)CC3O)[C@@H](CO)O2)c(=O)n1.[Na+]` (some centres unmarked) [Form L, guadecitabine sodium], the “Description of polymorph (stability / conditions of formation)” value is “Formed from Form A at 97% RH”.
